Results reported in US6355644B1, “Benzylpiperazinyl-indolinylethanones” (Neurogen Corporation, priority 1999, dated 2002).
pKi: −log10 of the molar value.

Key:
dopamine D2 receptor = dopamine D2 receptor (Chlorocebus aethiops, UniProt P52702); experiment: D2 receptor binding assay (3H-YM 09151-2 displacement); conditions: CHO cells recombinantly expressing primate D2; 0.1 nM 3H-YM 09151-2; 25° C.
Protocol: (§1) Determination of D2 and D4 Receptor Binding Activity
(§2) The following assay is used for determining the binding affinity of compounds to dopamine D4 and D2 receptors.
(§3) Pellets of Chinese hamster ovary (CHO) cells containing recombinantly expressing primate D2, human D4 or […] receptors are used for the assays. The sample is homogenized in 100 volumes (w/vol) of 0.05 M Tris HCl buffer containing 120 mM NaCl, 5 mM MgCl2 and 1 mM EDTA at 4° C. and pH 7.4. The sample is then centrifuged at 30,000×g, resuspended and rehomogenized. The sample is then recentrifuged at 30,000×g, the supernatant is removed and the final tissue sample is frozen until it is needed. The tissue is resuspended 1:20 (wt/vol) in 0.05 M Tris HCl buffer containing 120 mM NaCl.

dopamine D4 receptor = biological target: T1, dopamine D4 receptor (Homo sapiens, UniProt P21917); experiment: D4 receptor binding assay (3H-YM 09151-2 displacement); conditions: CHO cells recombinantly expressing human D4; 0.1 nM 3H-YM 09151-2; 25° C.
T1 sequence (P21917 1-419): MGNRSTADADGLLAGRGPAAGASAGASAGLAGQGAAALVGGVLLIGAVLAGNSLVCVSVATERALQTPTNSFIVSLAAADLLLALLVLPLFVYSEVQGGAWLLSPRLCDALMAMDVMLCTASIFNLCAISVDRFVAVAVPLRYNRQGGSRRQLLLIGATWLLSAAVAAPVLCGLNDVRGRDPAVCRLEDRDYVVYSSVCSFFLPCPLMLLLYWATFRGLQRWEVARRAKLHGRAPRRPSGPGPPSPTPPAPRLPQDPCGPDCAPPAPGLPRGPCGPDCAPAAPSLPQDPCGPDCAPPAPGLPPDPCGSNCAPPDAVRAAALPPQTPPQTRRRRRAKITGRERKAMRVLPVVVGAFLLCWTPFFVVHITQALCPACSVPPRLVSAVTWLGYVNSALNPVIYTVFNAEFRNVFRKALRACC
Protocol: as §1, §2, §3

dopamine D2 receptor, sequence (P52702 whole entry): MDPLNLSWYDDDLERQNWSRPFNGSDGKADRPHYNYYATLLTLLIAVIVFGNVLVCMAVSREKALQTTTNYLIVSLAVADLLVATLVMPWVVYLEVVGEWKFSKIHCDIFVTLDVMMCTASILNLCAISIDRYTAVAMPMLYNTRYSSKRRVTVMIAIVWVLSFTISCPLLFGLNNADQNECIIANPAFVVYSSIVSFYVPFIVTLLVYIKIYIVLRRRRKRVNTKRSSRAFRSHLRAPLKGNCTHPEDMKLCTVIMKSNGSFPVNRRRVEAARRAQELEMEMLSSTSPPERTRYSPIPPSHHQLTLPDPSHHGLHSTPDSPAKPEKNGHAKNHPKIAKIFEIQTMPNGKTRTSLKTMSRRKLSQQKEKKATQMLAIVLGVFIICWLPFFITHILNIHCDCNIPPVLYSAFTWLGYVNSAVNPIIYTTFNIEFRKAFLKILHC

| SMILES | pKi (dopamine D2 receptor) | pKi (dopamine D4 receptor) |
| --- | --- | --- |
| Cc1ccc(CN2CCN(CC(=O)N3CC(C)c4ccccc43)CC2)cc1 (centres unmarked) [Compound 1b] | 5.58 | 7.03 |
| Cc1ccc(CN2CCN(CC(=O)N3c4ccccc4[C@H](C)[C@@H]3C)CC2)cc1 [Compound 1d] | 6.33 | 7.15 |
| COc1ccc(Cl)cc1CN1CCN(CC(=O)N2c3ccccc3C(C)C2C)CC1 (centres unmarked) [Compound 1e] | 6.89 | 7.66 |
| O=C(CN1CCN(Cc2ccc(Cl)cc2)CC1)N1c2ccccc2CC1CO (centres unmarked) [Compound 1j] | 5.49 |  |
| O=C(CN1CCN(Cc2ccc(Cl)cc2)CC1)N1c2ccccc2C[C@H]1CF [Compound 1m] | 5.96 |  |

Continued, values first:

| pKi (dopamine D2 receptor) | pKi (dopamine D4 receptor) | SMILES |
| --- | --- | --- |
| 6.70 | 7.96 | Cc1ccc(CN2CCN(CC(=O)N3c4ccccc4[C@H]4CCCC[C@H]43)CC2)cc1 (relative stereo) [Compound 1o, 1-[(4b,8a-cis-5,6,7,8,9,4b,8a-heptahydro-4aH-carbazol-9-yl)ethyl]-2-{4-[(4-methylphenyl)methyl]piperazinyl}ethan-1-one] |
| 6.73 | 8.70 | Cc1ccc(CN2CCN(CC(=O)N3c4ccccc4[C@@H](C)[C@H]3C)CC2)cc1 [Compound 1c] |
|  | 8.30 | COC(=O)C1Cc2ccccc2N1C(=O)CN1CCN(Cc2ccc(Cl)cc2)CC1 (centres unmarked) [Compound 1g] |
|  | 8.30 | C=C[C@@H]1Cc2ccccc2N1C(=O)CN1CCN(Cc2ccc(Cl)cc2)CC1 [Compound 1l] |
